Experimental data: article PMC9123270 (The Journal of Biological Chemistry, 2022)

Assays:
Experiment in all cases: Isothermal titration calorimetry
Assay type in all cases: binding
Conditions in all cases: SD, n = 3
AngaD7L3 = AngaD7L3 (Anopheles gambiae, UniProt A0A1S4HE90)
AngaD7L1 = molecular target: T1, AngaD7L1 (Anopheles gambiae, UniProt Q7PJ76)
T1 sequence (Q7PJ76 22-311): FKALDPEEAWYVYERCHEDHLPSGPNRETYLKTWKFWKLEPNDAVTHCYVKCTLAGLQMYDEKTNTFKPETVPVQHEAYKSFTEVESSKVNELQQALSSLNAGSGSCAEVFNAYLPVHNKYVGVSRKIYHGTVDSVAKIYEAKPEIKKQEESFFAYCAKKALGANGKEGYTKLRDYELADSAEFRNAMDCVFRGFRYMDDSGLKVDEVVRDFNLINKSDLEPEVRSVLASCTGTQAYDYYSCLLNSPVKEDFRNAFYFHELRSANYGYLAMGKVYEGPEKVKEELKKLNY

AngaD7L2 = molecular target: T2, AngaD7L2 (Anopheles gambiae, UniProt A0A1S4GYJ6)
T2 sequence (A0A1S4GYJ6 19-315): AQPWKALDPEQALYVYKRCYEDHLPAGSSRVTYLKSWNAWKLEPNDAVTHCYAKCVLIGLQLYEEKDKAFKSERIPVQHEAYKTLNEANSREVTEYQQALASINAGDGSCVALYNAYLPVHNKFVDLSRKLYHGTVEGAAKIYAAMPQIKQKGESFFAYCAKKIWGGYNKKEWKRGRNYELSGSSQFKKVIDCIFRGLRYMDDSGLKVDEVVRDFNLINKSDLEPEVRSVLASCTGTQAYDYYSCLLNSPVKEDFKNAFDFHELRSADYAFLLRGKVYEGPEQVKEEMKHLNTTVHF

Chain of AngaD7L3 (A0A1S4HE90 27-354): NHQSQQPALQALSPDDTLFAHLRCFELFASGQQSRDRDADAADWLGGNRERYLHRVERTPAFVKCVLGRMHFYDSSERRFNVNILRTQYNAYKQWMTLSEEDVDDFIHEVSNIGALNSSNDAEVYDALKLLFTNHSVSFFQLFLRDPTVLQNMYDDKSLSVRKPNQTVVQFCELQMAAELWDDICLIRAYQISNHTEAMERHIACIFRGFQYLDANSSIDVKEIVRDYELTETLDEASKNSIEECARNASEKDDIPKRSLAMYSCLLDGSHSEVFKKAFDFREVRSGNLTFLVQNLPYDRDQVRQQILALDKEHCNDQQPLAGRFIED

Structure (SMILES)	Kd (AngaD7L1) [nM]	Kd (AngaD7L2) [nM]	also measured
NCCc1c[nH]c2ccc(O)cc12 [Serotonin, 5-hydroxytryptamine (5-HT)]	–	–	Kd (AngaD7L3): 20 nM
CCCCC/C=C\C\C=C/C=C/C=C/[C@@H](SC[C@H](NC(=O)CC[C@H](N)C(=O)O)C(=O)NCC(=O)O)[C@@H](O)CCCC(=O)O [LTC4, leukotriene C4]	2000	–	–
CCCCC/C=C\C[C@@H](O)/C=C/C=C/C=C\[C@@H](O)CCCC(=O)O [LTB4, leukotriene B4]	–	800	–
CCCCC/C=C\C\C=C/C=C/C=C/[C@@H](SC[C@H](N)C(=O)NCC(=O)O)[C@@H](O)CCCC(=O)O [LTD4, leukotriene D4]	–	1000	–
CCCCC[C@H](O)/C=C/[C@@H]1[C@@H](C/C=C\CCCC(=O)O)[C@H]2CO[C@@H]1C2 [U-46619, 9,11-dideoxy-9alpha,11alpha-methanoepoxyprostaglandin F2alpha (thromboxane A2 analog)]	400	–	–
